Laboratory results published in ChEMBL document CHEMBL5537183, “Discovery, Optimization, and Biological Evaluation of Arylpyridones as Cbl-b Inhibitors” (J Med Chem, 2024).

Tests used:
[1] = Lipophilicity, logD of compound at pH 7.4; type: physicochemical; conditions: buffer
[2] = Stability in human liver microsome assessed as intrinsic clearance; type: ADME; conditions: liver microsomes, read-out: CLH
[3] = Induction of IL-2 production in human T cells; type: functional, cell-based, T-cell
[4] = Clearance in rat hepatocytes assessed as measured per million cells at 0.1 to 1 uM measured for 120 mins by LC-MS/MS analysis; type: ADME, cell-based, Hepatocyte; conditions: dose 0.1-1 µM
[5] = Clearance in human hepatocytes assessed as measured per million cells at 0.1 to 1 uM measured for 120 mins by LC-MS/MS analysis; type: ADME, cell-based, Hepatocyte; conditions: dose 0.1-1 µM, read-out: CLH
[6] = Clearance in CD1 mouse at 0.5 mg/kg, iv measured for 24 hrs by LC-MS/MS analysis; type: ADME, organism-based; conditions: in vivo
[7] = Volume of distribution at steady state in CD1 mouse at 0.5 mg/kg, iv measured for 24 hrs by LC-MS/MS analysis; type: ADME, organism-based; conditions: in vivo, read-out: Vdss
[8] = Half life in CD1 mouse at 0.5 mg/kg, iv measured for 24 hrs by LC-MS/MS analysis; type: ADME, organism-based; conditions: in vivo
[9] = Cmax in CD1 mouse at 1 mg/kg, po measured for 24 hrs by LC-MS/MS analysis; type: ADME, organism-based; conditions: in vivo
[10] = Tmax in CD1 mouse at 1 mg/kg, po measured for 24 hrs by LC-MS/MS analysis; type: ADME, organism-based; conditions: in vivo
[11] = AUC (infinity) in CD1 mouse at 1 mg/kg, po measured for 24 hrs by LC-MS/MS analysis; type: ADME, organism-based; conditions: in vivo
[12] = Oral bioavailability in CD1 mouse at 1 mg/kg measured for 24 hrs by LC-MS/MS analysis; type: ADME, organism-based; conditions: in vivo
[13] = Clearance in Wistar Han rat at 0.5 mg/kg, iv measured for 24 hrs by LC-MS/MS analysis; type: ADME, organism-based; conditions: in vivo
[14] = Volume of distribution at steady state in Wistar Han rat at 0.5 mg/kg, iv measured for 24 hrs by LC-MS/MS analysis; type: ADME, organism-based; conditions: in vivo, read-out: Vdss
[15] = Half life in Wistar Han rat at 0.5 mg/kg, iv measured for 24 hrs by LC-MS/MS analysis; type: ADME, organism-based; conditions: in vivo
[16] = Cmax in Wistar Han rat at 1 mg/kg, po measured for 24 hrs by LC-MS/MS analysis; type: ADME, organism-based; conditions: in vivo
[17] = Tmax in Wistar Han rat at 1 mg/kg, po measured for 24 hrs by LC-MS/MS analysis; type: ADME, organism-based; conditions: in vivo
[18] = AUC (infinity) in Wistar Han rat at 1 mg/kg, po measured for 24 hrs by LC-MS/MS analysis; type: ADME, organism-based; conditions: in vivo
[19] = Oral bioavailability in Wistar Han rat at 1 mg/kg measured for 24 hrs by LC-MS/MS analysis; type: ADME, organism-based; conditions: in vivo
[20] = target: T1, E3 ubiquitin-protein ligase CBL-B (Homo sapiens, UniProt Q13191); experiment: Inhibition of biotinylated recombinant Cbl-b (36 to 427 residues)(unknown origin) expressed in Escherichia coli BL21(DE3) Tuner cells using a FAM-labeled probe by TR-FRET assay
[21] = target: E3 ubiquitin-protein ligase CBL (Homo sapiens, UniProt P22681); experiment: Inhibition of cCbl (unknown origin) by TR-FRET assay
[22] = target: T1, E3 ubiquitin-protein ligase CBL-B; experiment: Inhibition of biotinylated recombinant Cbl-b (36 to 427 residues)(unknown origin) expressed in Escherichia coli BL21(DE3) Tuner cells assessed as decrease in Cbl-b auto-ubiquitination incubated for 60 mins in presence of Ub-FITC/ATP by TR-FRET assay
[23] = target: T1, E3 ubiquitin-protein ligase CBL-B; experiment: Inhibition of biotinylated recombinant Cbl-b (36 to 427 residues)(unknown origin) expressed in Escherichia coli BL21(DE3) Tuner cells assessed as decrease in ZAP70 ubiquitination incubated for 60 mins in presence of Ub-FITC/ATP by TR-FRET assay

T1 sequence (Q13191 whole entry, the tested form may be a part): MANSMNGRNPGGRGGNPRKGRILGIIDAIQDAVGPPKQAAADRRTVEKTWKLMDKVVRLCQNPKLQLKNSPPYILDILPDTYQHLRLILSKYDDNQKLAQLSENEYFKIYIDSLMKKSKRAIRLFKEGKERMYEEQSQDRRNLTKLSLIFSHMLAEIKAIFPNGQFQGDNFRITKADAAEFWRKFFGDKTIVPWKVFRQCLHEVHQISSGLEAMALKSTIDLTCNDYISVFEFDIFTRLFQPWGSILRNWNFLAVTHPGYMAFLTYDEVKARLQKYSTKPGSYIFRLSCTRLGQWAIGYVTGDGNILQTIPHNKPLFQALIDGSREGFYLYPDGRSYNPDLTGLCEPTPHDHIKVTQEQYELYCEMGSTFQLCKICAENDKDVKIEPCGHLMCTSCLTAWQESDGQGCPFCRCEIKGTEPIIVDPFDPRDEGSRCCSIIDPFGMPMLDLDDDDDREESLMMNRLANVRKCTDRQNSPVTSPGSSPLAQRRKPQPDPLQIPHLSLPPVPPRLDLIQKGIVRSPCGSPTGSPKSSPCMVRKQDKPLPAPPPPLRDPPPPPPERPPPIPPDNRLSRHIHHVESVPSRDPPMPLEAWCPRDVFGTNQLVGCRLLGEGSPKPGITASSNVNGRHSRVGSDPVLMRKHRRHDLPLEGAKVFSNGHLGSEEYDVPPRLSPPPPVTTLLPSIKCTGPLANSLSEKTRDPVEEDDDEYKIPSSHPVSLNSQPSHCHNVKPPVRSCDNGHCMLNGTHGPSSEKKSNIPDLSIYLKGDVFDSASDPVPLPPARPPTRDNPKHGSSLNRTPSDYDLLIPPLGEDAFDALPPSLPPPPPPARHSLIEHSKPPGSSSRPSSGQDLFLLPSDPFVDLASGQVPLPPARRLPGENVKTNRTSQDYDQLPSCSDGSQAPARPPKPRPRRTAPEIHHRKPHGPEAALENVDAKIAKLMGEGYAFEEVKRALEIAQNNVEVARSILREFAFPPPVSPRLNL

C[C@@H](c1cnn(C)c1)n1cc(C(F)(F)F)cc(-c2cccc([C@]3(c4nncn4C)C[C@@H](C)C3)c2)c1=O
logD [1]: 2.8
microsomal CLint [2]: 160 µL/min/mg
EC50 ([3]; t-cell): 230 nM
hepatocyte CLint at up to 1 µM [4]: 6.4 µL/min/1e6 cells
hepatocyte CLint at up to 1 µM [5]: 8.7 µL/min/1e6 cells
clearance [6]: 100 mL/min/kg
Vd [7]: 1.3 L/kg
half-life [8]: 18 min
Cmax [9]: 35 ng/mL
Tmax [10]: 4.98 min
AUC(0-inf) [11]: 30 ng·h/mL
bioavailability [12]: 19%
clearance [13]: 55 mL/min/kg
Vd [14]: 1.6 L/kg
half-life [15]: 27 min
Cmax [16]: 21 ng/mL
Tmax [17]: 45 min
AUC(0-inf) [18]: 46 ng·h/mL
bioavailability [19]: 15%

Cc1nnc(Cn2cc(C(F)(F)F)cc(-c3cccc([C@]4(c5nncn5C)C[C@@H](C)C4)c3)c2=O)o1
IC50 [20]: 70 nM
IC50 [21]: 330 nM
logD [1]: 1.7
microsomal CLint [2]: 29 µL/min/mg
EC50 ([3]; Homo sapiens, T-cell): 2860 nM
hepatocyte CLint at up to 1 µM [4]: 7.8 µL/min/1e6 cells
hepatocyte CLint at up to 1 µM [5]: 1.7 µL/min/1e6 cells

Cn1cc(C(F)(F)F)cc(-c2cccc([C@]3(c4nncn4C)C[C@@H](C)C3)c2)c1=O
IC50 [20]: 145 nM
IC50 [21]: 880 nM
logD [1]: 2.4
microsomal CLint [2]: 37 µL/min/mg
EC50 ([3]; Homo sapiens, T-cell): 5890 nM
hepatocyte CLint at up to 1 µM [4]: 16 µL/min/1e6 cells

Cn1cnnc1[C@]1(c2cccc(-n3cc(C(F)(F)F)ccc3=O)c2)C[C@H](C)C1
IC50 [20]: 2100 nM
IC50 [21]: 10300 nM
logD [1]: 1.6
microsomal CLint [2]: 15 µL/min/mg

Cn1cnnc1[C@]1(c2cccc(-c3cc(C(F)(F)F)c[nH]c3=O)c2)C[C@H](C)C1
IC50 [20]: 84 nM
IC50 [21]: 580 nM
logD [1]: 3.58
microsomal CLint [2]: 2.5 µL/min/mg
hepatocyte CLint at up to 1 µM [4]: 16 µL/min/1e6 cells

Cn1cnnc1[C@]1(c2cccc(-c3cc(OC(F)(F)F)c[nH]c3=O)c2)C[C@H](C)C1
IC50 [20]: 310 nM
IC50 [21]: 1700 nM
logD [1]: 2.6
microsomal CLint [2]: 3 µL/min/mg

Cn1cnnc1[C@@H](c1cccc(-c2cc(C(F)(F)F)c[nH]c2=O)c1)C1CCC1 (racemic)
IC50 [20]: 59 nM
IC50 [21]: 410 nM
logD [1]: 2.5
microsomal CLint [2]: 25 µL/min/mg
EC50 ([3]; Homo sapiens, T-cell): 5290 nM

Cn1cnnc1C1(c2cccc(-c3cc(C(F)(F)F)c[nH]c3=O)c2)CCC1
IC50 [20]: 340 nM
IC50 [21]: 2200 nM
logD [1]: 2.1
microsomal CLint [2]: 14 µL/min/mg
EC50 ([3]; Homo sapiens, T-cell): 3980 nM

Cn1cc(Cn2cc(C(F)(F)F)cc(-c3cccc([C@]4(c5nncn5C)C[C@@H](C)C4)c3)c2=O)cn1
IC50 [20]: 40 nM
IC50 [21]: 200 nM
logD [1]: 2.7
microsomal CLint [2]: 200 µL/min/mg
EC50 ([3]; Homo sapiens, T-cell): 3000 nM
hepatocyte CLint at up to 1 µM [4]: 9.7 µL/min/1e6 cells

Cn1cnnc1[C@]1(c2cccc(-c3cc(C4CC4)c[nH]c3=O)c2)C[C@H](C)C1
IC50 [20]: 360 nM
IC50 [21]: 1340 nM
logD [1]: 2.4
microsomal CLint [2]: 29 µL/min/mg

CC#C[C@H](C)n1cc(C(F)(F)F)cc(-c2cccc([C@]3(c4nncn4C)C[C@@H](C)C3)c2)c1=O
IC50 [20]: 30 nM
IC50 [21]: 40 nM
logD [1]: 3.9
microsomal CLint [2]: 190 µL/min/mg
EC50 ([3]; Homo sapiens, T-cell): 460 nM
hepatocyte CLint at up to 1 µM [4]: 24 µL/min/1e6 cells

Cc1c[nH]c(=O)c(-c2cccc([C@]3(c4nncn4C)C[C@@H](C)C3)c2)c1
IC50 [20]: 1470 nM
IC50 [21]: 6300 nM
logD [1]: 2.6
microsomal CLint [2]: 3 µL/min/mg

Cn1cnc(Cn2cc(C(F)(F)F)cc(-c3cccc([C@]4(c5nncn5C)C[C@@H](C)C4)c3)c2=O)c1
IC50 [20]: 50 nM
IC50 [21]: 190 nM
logD [1]: 2.4
microsomal CLint [2]: 130 µL/min/mg
EC50 ([3]; Homo sapiens, T-cell): 2530 nM
hepatocyte CLint at up to 1 µM [4]: 32 µL/min/1e6 cells

C[C@@H](C#N)n1cc(C(F)(F)F)cc(-c2cccc([C@]3(c4nncn4C)C[C@@H](C)C3)c2)c1=O
IC50 [20]: 40 nM
IC50 [21]: 50 nM
logD [1]: 2.2
microsomal CLint [2]: 85 µL/min/mg
EC50 ([3]; Homo sapiens, T-cell): 440 nM
hepatocyte CLint at up to 1 µM [4]: 12 µL/min/1e6 cells

Cn1cc(Cn2cc(C(F)(F)F)cc(-c3cccc([C@]4(c5nncn5C)C[C@@H](C)C4)c3)c2=O)nn1
IC50 [20]: 30 nM
IC50 [21]: 40 nM
logD [1]: 2.3
microsomal CLint [2]: 79 µL/min/mg
EC50 ([3]; Homo sapiens, T-cell): 1680 nM
hepatocyte CLint at up to 1 µM [4]: 8.1 µL/min/1e6 cells

C[C@@H](COCCC(=O)N1CCN2c3ncc(C(F)(F)F)cc3NC(=O)C2C1)Nc1cn[nH]c(=O)c1C(F)(F)F (stereo partly drawn)
IC50 [22]: 30.7 nM
IC50 [23]: 26.9 nM

Cn1cnnc1C[C@]1(c2cccc(-c3cc(C(F)(F)F)c[nH]c3=O)c2)C[C@H](C#N)C1
IC50 [20]: 160 nM
IC50 [21]: 960 nM
logD [1]: 1.1
microsomal CLint [2]: 6.8 µL/min/mg
EC50 ([3]; Homo sapiens, T-cell): > 30000 nM

COc1c[nH]c(=O)c(-c2cccc([C@]3(c4nncn4C)C[C@@H](C)C3)c2)c1
IC50 [20]: 2680 nM
IC50 [21]: 11600 nM
logD [1]: 1.5
microsomal CLint [2]: 9.7 µL/min/mg

CN1CCC(Cn2cc(C(F)(F)F)cc(-c3cccc([C@]4(c5nncn5C)C[C@@H](C)C4)c3)c2=O)CC1
IC50 [20]: 74 nM
IC50 [21]: 460 nM
logD [1]: 1.3
microsomal CLint [2]: 47 µL/min/mg
EC50 ([3]; Homo sapiens, T-cell): 16700 nM
hepatocyte CLint at up to 1 µM [4]: 13 µL/min/1e6 cells

Cn1cnnc1[C@]1(c2cccc(-c3cc(C(F)(F)F)ccc3O)c2)C[C@H](C)C1
IC50 [20]: > 100000 nM
IC50 [21]: > 100000 nM
logD [1]: 4.4
microsomal CLint [2]: 21 µL/min/mg

C[C@H](c1cnn(C)c1)n1cc(C(F)(F)F)cc(-c2cccc([C@]3(c4nncn4C)C[C@@H](C)C3)c2)c1=O
logD [1]: 2.9
microsomal CLint [2]: 220 µL/min/mg
EC50 ([3]; Homo sapiens, T-cell): 590 nM
hepatocyte CLint at up to 1 µM [4]: 21 µL/min/1e6 cells

CN1CC[C@H](Cn2cc(C(F)(F)F)cc(-c3cccc([C@]4(c5nncn5C)C[C@@H](C)C4)c3)c2=O)C1
IC50 [20]: 50 nM
IC50 [21]: 330 nM
logD [1]: 1.1
microsomal CLint [2]: 13 µL/min/mg
EC50 ([3]; Homo sapiens, T-cell): 10800 nM
hepatocyte CLint at up to 1 µM [4]: 2.4 µL/min/1e6 cells

Cn1cc(C(F)(F)F)c2cc(-c3cccc([C@]4(c5nncn5C)C[C@@H](C)C4)c3)c(=O)[nH]c21
IC50 [20]: 190 nM
IC50 [21]: 860 nM
logD [1]: 3.8
microsomal CLint [2]: 83 µL/min/mg

Cn1cnnc1[C@]1(c2cccc(-c3nc(C(F)(F)F)c[nH]c3=O)c2)C[C@H](C)C1
IC50 [20]: 890 nM
IC50 [21]: 6550 nM
logD [1]: 2.1
microsomal CLint [2]: 15 µL/min/mg

CC#CCn1cc(C(F)(F)F)cc(-c2cccc([C@]3(c4nncn4C)C[C@@H](C)C3)c2)c1=O
IC50 [20]: 34 nM
IC50 [21]: 160 nM
logD [1]: 3.3
microsomal CLint [2]: 76 µL/min/mg
EC50 ([3]; Homo sapiens, T-cell): 850 nM
hepatocyte CLint at up to 1 µM [4]: 21 µL/min/1e6 cells
